Data as given in PubChem BioAssay (NCI).
Where “and” joins values, the source holds several entries; their conditions need not be identical. Equal values may be shown once.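 Cultured in 96-well plates, cells were exposed to test compound for 48 hours across five concentrations. Here, GI50 denotes the concentration required for 50% inhibition of growth. The concentration for full growth arrest is given as TGI.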

Key:
Assay in all cases: inhibition of tumour cell growth, NCI panel, 48 h
[1] = test system: OVCAR-5 ovarian
[2] = test system: NCI-H522 lung
[3] = test system: IGROV1 ovarian
[4] = test system: SK-MEL-28 melanoma
[5] = test system: SR leukemia
[6] = test system: UO-31 renal
[7] = test system: HOP-92 NSCLC
[8] = test system: SN12C renal
[9] = test system: SK-MEL-5 melanoma
[10] = test system: MALME-3M melanoma
[11] = test system: UACC-257 melanoma
[12] = test system: SK-MEL-2 melanoma
[13] = test system: NCI/ADR-RES ovarian
[14] = test system: T-47D breast

Structure (SMILES)	TGI [1] [µM]	TGI [2] [µM]	TGI [3] [µM]	TGI [4]	TGI [5] [µM]	TGI [6]	TGI [7] [µM]	TGI [8]	TGI [9]	TGI [10]	TGI [11]	TGI [12]	TGI [13] [µM]	TGI [14] [µM]	GI50 [6] [µM]	GI50 [8] [µM]	GI50 [9] [µM]	GI50 [10] [µM]	GI50 [11] [µM]	GI50 [12] [µM]
COc1ccccc1N1CCN(CCCCNC(=O)c2ccc([N+](=O)[O-])o2)CC1	33.1	7.26	28.9	> 100 µM	> 58.3	23.2 µM	40.4	17.4 µM	18.7 µM	7.94 µM	13.2 µM	19.4 µM	> 100	40.3						
Cc1ccc(C2(O)c3ccccc3C(=O)N(C)C2(O)c2ccc(C)cc2)cc1 (centres undefined)	> 100	> 100	> 100	> 100 µM	13.2	> 100 µM	91.1	> 100 µM	> 100 µM	> 100 µM	> 100 µM	> 100 µM	> 100	> 100						
CCOC(=O)Oc1cc2ccsc2c2c1c1ccccc1n2C(=O)OCC	> 100	> 100	> 100	> 100 µM	> 100	60.8 µM	44.7	> 100 µM	> 100 µM	> 100 µM	> 100 µM	> 100 µM	> 100	> 100						
O=C(Nc1ccccc1)c1cc2ccccc2c(N=Nc2cccc([N+](=O)[O-])c2)c1O	> 100	> 100	> 100	> 100 µM	> 100	> 100 µM	> 100	> 100 µM	> 100 µM	> 100 µM	> 100 µM	> 100 µM	> 100	> 100						
Cc1cc(OCc2nc(N)nc(N)c2-c2ccc(Cl)c(Cl)c2)ccc1[N+](=O)[O-]	47	10.6	> 41.1	40.8 µM	0.106	30.5 µM	> 60	25.9 µM	15 µM	29.5 µM	3.28 µM	15.1 µM	18.6	> 51.5						
O=[N+]([O-])c1cc(C2(N3CCCCC3)CCCCC2)sc1Br	38.2	6.78	25.1	23.9 µM	10.7	24.6 µM	21.7	21.8 µM	18.7 µM	20 µM	4.51 µM	21.4 µM	28.2	4.64						
CN1C(=O)c2ccccc2C(O)(c2ccccc2)C1(O)c1ccccc1 (centres undefined)	> 100	> 100	> 100	> 100 µM	> 100	> 100 µM	97.7	> 100 µM	> 100 µM	> 100 µM	> 100 µM	> 100 µM	> 100	> 100						
Cc1cccc2c(N)c3cccc(C(=O)NCC[N+](C)(C)Cc4ccc([N+](=O)[O-])n4C)c3nc12	> 70.8	35.8	58.4	> 100 µM	36.6	74.7 µM	> 100	> 57.3 µM	59 µM	41.3 µM	> 80.9 µM	> 100 µM	98.9	> 85.9						
CN1C(=O)N(C)C2(CCN(CC(CC3OCCO3)c3ccc(F)cc3)CC2)C1=O (centres undefined)	> 100	> 100	> 100	> 100 µM	> 100	> 100 µM	> 100	> 100 µM	> 100 µM	> 100 µM	> 100 µM	> 100 µM	> 100	> 100						
C=C1C(=O)OC2C1CCC(=C)C1CC(O)C(=C)C12 (centres undefined)	26.3	6.39	28	32 µM	10.8	29.5 µM	11.3	31.9 µM	30.6 µM	30.1 µM	27.2 µM	32.7 µM	54.9	42.8						
Nc1nc(Cl)cc(NCC2(CO)CCCCC2)n1	> 100	> 100	> 100	> 100 µM	> 100	> 100 µM	> 100	> 100 µM	> 100 µM	> 100 µM	> 100 µM	> 100 µM	> 100	> 100						
CN(C(=O)[C@H](NC(=O)OCc1ccccc1)c1ccccc1)C1CCCCC1N1CCCC1 (some centres undefined)	> 100	> 100	> 100	> 100 µM	87.6	> 100 µM	> 100	> 100 µM	41.2 µM	> 100 µM	63.2 µM	> 100 µM	> 100	> 100						
CCN(CC)CCNc1c2ccccc2nc2cccc([N+](=O)[O-])c12	0.0302	0.0132	0.0267	0.0566 µM and 0.152 µM	0.0888	0.0412 µM and 0.252 µM	0.0261	0.0413 µM and 0.207 µM	0.0173 µM and 0.0258 µM	0.0231 µM and 0.0287 µM	0.0502 µM and 0.065 µM	0.0185 µM and 0.023 µM	0.034	0.0661	0.0712	0.0221	0.0112	0.013	0.022	0.0102
COc1ccc(C=Nc2ccc(-c3nc4ccccc4s3)cc2)cc1OC	> 100	47.4	86.4	> 100 µM	> 100	> 100 µM	53.5	> 100 µM	30.8 µM	89.2 µM	61 µM	48.1 µM	89.8	81.2						
O=C(O)c1cc2ccccc2c(Cc2c(O)c(C(=O)O)cc3ccccc23)c1O	> 100	> 100	> 100	> 100 µM	> 100	> 100 µM	> 100	> 100 µM	> 100 µM	> 100 µM	> 100 µM	> 100 µM	> 100	> 100						
c1ccc(-c2cnc(SC(c3ccccc3)c3ccccc3)[nH]2)cc1	> 100	54.6	> 100	> 100 µM	64.3	> 100 µM	54	65.4 µM	27 µM	73.9 µM	55.5 µM	53.2 µM	85.4	54.7						
COC(=O)C1OC(O[C@H]2CC[C@]3(C)[C@H]4CC=C5[C@@H]6CC(C)(C)CC[C@]6(C(=O)OC)CC[C@@]5(C)[C@]4(C)CC[C@H]3C2(C)C)C(O)C(O)C1O (some centres undefined)	27.7	35.2	37.4	32.7 µM	14.4	33.4 µM	34.7	26.8 µM	32.2 µM	38.2 µM	35.4 µM	31.9 µM	36.1	40.9						
